Measurements: patent US20150105252A1, “SUBSTITUTED PYRAZOLES AS HERBICIDES” (E I DU PONT DE NEMOURS AND COMPANY, priority 2013, published 2015)

Experiments:
[1] = tested on: hairy beggarticks; assay: Test F preemergence; type: in vivo, Bidens pilosa
Summary of the method: (§1)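 Test chemicals in a non-phytotoxic solvent with surfactant were applied preemergence to seeds sown in silt loam, or postemergence to plants 2–18 cm tall (1- to 4-leaf stage). Plants were kept in a greenhouse for 14–21 days and then rated visually against controls on a 0 (no effect) to 100 (complete control) scale.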

[2] = tested on: bromegrass, downy; assay: Test D postemergence; type: in vivo, Bromus tectorum; settings: scale 0 to 100
Description: (§2) Seeds of plant species selected from bluegrass (annual bluegrass, Poa annua), blackgrass (Alopecurus myosuroides), canarygrass (littleseed canarygrass, Phalaris minor), chickweed (common chickweed, Stellaria media), galium (catchweed bedstraw, Galium aparine), bromegrass, downy (downy bromegrass, Bromus tectorum), field poppy (Papaver rhoeas), field violet (Viola arvensis), foxtail, green (green foxtail, Setaria viridis), deadnettle (henbit deadnettle, Lamium amplexicaule), ryegrass, Italian (Italian ryegrass, Lolium multiflorum), kochia (Kochia scoparia), lambsquarters (Chenopodium album), oilseed rape (Brassica napus), pigweed (redroot pigweed, Amaranthus retroflexus), chamomile (scentless chamomile, Matricaria inodora), speedwell (bird's-eye speedwell, Veronica persica), barley, spring (spring barley, Hordeum vulgare), wheat, spring (spring wheat, Triticum aestivum), buckwheat, wild (wild buckwheat, Polygonum convolvulus), mustard, wild (wild mustard, Sinapis arvensis), oat, wild (wild oat, Avena fatua), radish, wild (wild radish, Raphanus raphanistrum), windgrass (Apera spica-venti), Russian thistle (Salsola kali), barley, winter (winter barley, Hordeum vulgare), and wheat, winter (winter wheat, Triticum aestivum) were planted into a silt loam soil and treated preemergence with test chemicals formulated in a non-phytotoxic solvent mixture which included a surfactant.
(§3) At the same time, these species were planted in pots containing Redi-Earth® planting medium (Scotts Company, 14111 Scottslawn Road, Marysville, Ohio 43041) comprising spaghnum peat moss, vermiculite, wetting agent and starter nutrients and treated with postemergence applications of the test chemicals formulated in the same manner. Plants ranged in height from 2 to 18 cm (1- to 4-leaf stage). Treated plants and controls were maintained in a controlled growth environment for 14 to 21 days after which time all species were compared to controls and visually evaluated. Plant response ratings, summarized in Table D, are based on a scale of 0 to 100 where 0 is no effect and 100 is complete control. A dash (-) response means no test result.

[3] = tested on: kochia; assay: Test F preemergence; type: in vivo, Kochia scoparia
Description: (§4) Seeds of plant species selected from corn (Zea mays), soybean (Glycine max), velvetleaf (Abutilon theophrasti), lambsquarters (Chenopodium album), wild poinsettia (Euphorbia heterophylla), pigweed, palmer (palmer pigweed, Amaranthus palmeri), common waterhemp (Amaranthus rudis), surinam grass (Brachiaria decumbens), large crabgrass (Digitaria sanguinalis), crabgrass, Brazil (Brazilian crabgrass, Digitaria horizontalis), fall panicum (Panicum dichotomiflorum), giant foxtail (Setaria faberii), green foxtail (Setaria viridis), goosegrass (Eleusine indica), johnsongrass (Sorghum halepense), common ragweed (Ambrosia elation), barnyardgrass (Echinochloa crus-galli), southern sandbur (Cenchrus echinatus), arrowleaf sida (Sida rhombifolia), Italian ryegrass (Lolium multiflorum), dayflower, VA (Virginia (VA) dayflower, Commelina virginica), field bindweed (Convolvulus arvensis), cocklebur (common cocklebur, Xanthium strumarium), morningglory (Ipomoea coccinea), nightshade (eastern black nightshade, Solanum ptycanthum), kochia (Kochia scoparia), yellow nutsedge (Cyperus esculentus), and hairy beggarticks (Bidens pilosa), were planted into a silt loam soil and treated preemergence with test chemicals formulated in a non-phytotoxic solvent mixture which included a surfactant.
(§5) At the same time, plants from these crop and weed species and also horseweed (Canada horseweed, Conyza canadensis), smartweed (ladysthumb smartweed, Polygonum persicaria), waterhemp_RES1, (ALS & Triazine resistant common waterhemp, Amaranthus rudis), and waterhemp_RES2, (ALS & HPPD resistant common waterhemp, Amaranthus rudis) were treated with postemergence applications of test chemicals formulated in the same manner. Plants ranged in height from 2 to 18 cm for postemergence treatments (1- to 4-leaf stage). Treated plants and controls were maintained in a greenhouse for 14 to 21 days, after which time all species were compared to controls and visually evaluated. Plant response ratings, summarized in Table F, are based on a scale of 0 to 100 where 0 is no effect and 100 is complete control. A dash (-) response means no test result.

[4] = tested on: kochia; assay: Test D preemergence; type: in vivo, Kochia scoparia; settings: scale 0 to 100
Summary of the method: (§6)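 Visual 0-100 rating (100 = complete control) against untreated plants, made 14 to 21 days after treatment in a controlled environment. Compounds, formulated with surfactant in non-phytotoxic solvent, were applied either to seeds just sown in silt loam or to 1- to 4-leaf plants (2 to 18 cm) grown in peat-based medium.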

[5] = tested on: windgrass; assay: Test D postemergence; type: in vivo, Apera spica-venti; settings: scale 0 to 100
Summary of the method: as §6

[6] = tested on: barley, spring; assay: Test D preemergence; type: in vivo, Hordeum vulgare; settings: scale 0 to 100
Description: as §2, §3

[7] = tested on: barley, winter; assay: Test D preemergence; type: in vivo, Hordeum vulgare; settings: scale 0 to 100
Description: as §2, §3

[8] = tested on: chickweed; assay: Test D postemergence; type: in vivo, Stellaria media; settings: scale 0 to 100
Description: as §2, §3

[9] = tested on: common ragweed; assay: Test F preemergence; type: in vivo, Ambrosia elation
Description: as §4, §5

[10] = tested on: arrowleaf sida; assay: Test F preemergence; type: in vivo, Sida rhombifolia
Summary of the method: as §1

[11] = tested on: buckwheat, wild; assay: Test D preemergence; type: in vivo, Polygonum convolvulus; settings: scale 0 to 100
Summary of the method: as §6

[12] = tested on: nightshade; assay: Test F preemergence; type: in vivo, Solanum ptycanthum
Description: as §4, §5

[13] = tested on: galium; assay: Test D postemergence; type: in vivo, Galium aparine; settings: scale 0 to 100
Summary of the method: as §6

[14] = tested on: pigweed; assay: Test D preemergence; type: in vivo, Amaranthus retroflexus; settings: scale 0 to 100
Summary of the method: as §6

[15] = Preemergence, 31 g ai/ha, scale 0 to 100
[16] = Preemergence, 62 g ai/ha, scale 0 to 100
[17] = Preemergence, 125 g ai/ha, scale 0 to 100
[18] = preemergence, 8 g ai/ha, scale 0 to 100, 100 is complete control
[19] = preemergence, 16 g ai/ha, scale 0 to 100, 100 is complete control

## CCc1cc(C(=O)NCC(F)(F)F)nn1Cc1ccnc(C(F)(F)F)c1 [Compound 78, 5-ethyl-N-(2,2,2-trifluoroethyl)-1-[[(2-trifluoromethyl)-4-pyridinyl]methyl]-1H-pyrazole-3-carboxamide]
[1]; [15]
  Plant response rating, Hairy Beggarticks: 25
[1]; [16]
  Plant response rating, Hairy Beggarticks: 35
[1]; [17]
  Plant response rating, Hairy Beggarticks: 80
[1]; [18]
  Plant response rating, Hairy Beggarticks: 0
[1]; [19]
  Plant response rating, Hairy Beggarticks: 20
[2]; Postemergence, 31 g ai/ha
  Bromegrass, Downy plant response rating: 10
[2]; Postemergence, 125 g ai/ha
  Bromegrass, Downy plant response rating: 20
[2]; Postemergence, 250 g ai/ha
  Bromegrass, Downy plant response rating: 25
[2]; postemergence, 62 g ai/ha
  Bromegrass, Downy plant response rating: 15
[3]; [15]
  Plant response rating, Kochia: 100
[3]; [16]
  Plant response rating, Kochia: 100
[3]; [17]
  Plant response rating, Kochia: 100
[3]; [18]
  Plant response rating, Kochia: 40
[3]; [19]
  Plant response rating, Kochia: 65
[4]; 31 g ai/ha
  Plant response rating, Kochia: 95
[4]; 62 g ai/ha
  Plant response rating, Kochia: 100
[4]; 125 g ai/ha
  Plant response rating, Kochia: 100
[4]; 250 g ai/ha
  Plant response rating, Kochia: 100
[5]; Postemergence, 31 g ai/ha
  Windgrass plant response rating: 10
[5]; Postemergence, 125 g ai/ha
  Windgrass plant response rating: 35
[5]; Postemergence, 250 g ai/ha
  Windgrass plant response rating: 60
[5]; postemergence, 62 g ai/ha
  Windgrass plant response rating: 20
[6]; 31 g ai/ha
  Plant response rating, Barley, Spring: 20
[6]; 62 g ai/ha
  Plant response rating, Barley, Spring: 65
[6]; 125 g ai/ha
  Plant response rating, Barley, Spring: 90
[6]; 250 g ai/ha
  Plant response rating, Barley, Spring: 100
[7]; 31 g ai/ha
  Plant response rating, Barley, Winter: 25
[7]; 62 g ai/ha
  Plant response rating, Barley, Winter: 50
[7]; 125 g ai/ha
  Plant response rating, Barley, Winter: 65
[7]; 250 g ai/ha
  Plant response rating, Barley, Winter: 95
[8]; Postemergence, 31 g ai/ha
  Chickweed plant response rating: 25
[8]; Postemergence, 125 g ai/ha
  Chickweed plant response rating: 70
[8]; Postemergence, 250 g ai/ha
  Chickweed plant response rating: 80
[8]; postemergence, 62 g ai/ha
  Chickweed plant response rating: 50
[9]; [15]
  Plant response rating, Common Ragweed: 90
[9]; [16]
  Plant response rating, Common Ragweed: 98
[9]; [17]
  Plant response rating, Common Ragweed: 100
[9]; [18]
  Plant response rating, Common Ragweed: 0
[9]; [19]
  Plant response rating, Common Ragweed: 30
[10]; [15]
  Plant response rating, Arrowleaf Sida: 0
[10]; [16]
  Plant response rating, Arrowleaf Sida: 20
[10]; [17]
  Plant response rating, Arrowleaf Sida: 35
[10]; [18]
  Plant response rating, Arrowleaf Sida: 0
[10]; [19]
  Plant response rating, Arrowleaf Sida: 0
[11]; 31 g ai/ha
  Plant response rating, Buckwheat, Wild: 95
[11]; 62 g ai/ha
  Plant response rating, Buckwheat, Wild: 100
[11]; 125 g ai/ha
  Plant response rating, Buckwheat, Wild: 100
[11]; 250 g ai/ha
  Plant response rating, Buckwheat, Wild: 100
[12]; [15]
  Plant response rating, Nightshade: 95
[12]; [16]
  Plant response rating, Nightshade: 98
[12]; [17]
  Plant response rating, Nightshade: 98
[12]; [18]
  Plant response rating, Nightshade: 0
[12]; [19]
  Plant response rating, Nightshade: 60
[13]; Postemergence, 31 g ai/ha
  Galium plant response rating: 60
[13]; Postemergence, 125 g ai/ha
  Galium plant response rating: 80
[13]; Postemergence, 250 g ai/ha
  Galium plant response rating: 85
[13]; postemergence, 62 g ai/ha
  Galium plant response rating: 70
[14]; 31 g ai/ha
  Plant response rating, Pigweed: 100
[14]; 62 g ai/ha
  Plant response rating, Pigweed: 100
[14]; 125 g ai/ha
  Plant response rating, Pigweed: 100
[14]; 250 g ai/ha
  Plant response rating, Pigweed: 100
